This is an account of results in patent US20150105252A1, “SUBSTITUTED PYRAZOLES AS HERBICIDES” (E I DU PONT DE NEMOURS AND COMPANY, priority 2013, published 2015).

Experiment [1] has as its system kochia. The experiment can be described thus: Test A preemergence. It counts as in vivo, Kochia scoparia. In short, it runs like this: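 Ratings express plant response from 0 (no effect) to 100 (complete control), judged visually against untreated controls after approximately 10 days in the greenhouse. Preemergence applications were made as directed soil sprays onto seeded loam–sand mix, and postemergence applications onto 2–10 cm plants at one- to two-leaf stage.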

Experiment [2] relates to foxtail, green. The experiment can be described thus: Test C preemergence. Conditions: for Plant response rating (scale of 0 to 100), Foxtail, Green: Preemergence, 250 g ai/ha; for Foxtail, Green plant response rating / Plant response rating, Foxtail, Green: preemergence; for Plant response rating, Foxtail, Green: 62 g ai/ha, scale 0 to 100, 0 = no effect, 100 = complete control. It counts as in vivo, Setaria viridis. From the text:
(§1) Seeds of plant species selected from blackgrass (Alopecurus myosuroides), ryegrass, Italian (Italian ryegrass, Lolium multiflorum), wheat (winter wheat, Triticum aestivum), galium (catchweed bedstraw, Galium aparine), corn (Zea mays), crabgrass, large (large crabgrass, Digitaria sanguinalis), foxtail, giant (giant foxtail, Setaria faberii), johnsongrass (Sorghum halepense), lambsquarters (Chenopodium album), morningglory (Ipomoea coccinea), nutsedge, yellow (yellow nutsedge, Cyperus esculentus), pigweed (redroot pigweed, Amaranthus retroflexus), ragweed (common ragweed, Ambrosia elation), soybean (Glycine max), barnyardgrass (Echinochloa crus-galli), oilseed rape (Brassica napus), waterhemp (common waterhemp, Amaranthus rudis), oat, wild (wild oat, Avena fatua), kochia (Kochia scoparia), Surinam grass (Brachiaria decumbens), foxtail, green (green foxtail, Setaria viridis), goosegrass (Eleusine indica), bromegrass, downy (downy bromegrass, Bromus tectorum), nightshade (eastern black nightshade, Solanum ptycanthum), cocklebur (common cocklebur, Xanthium strumarium), cupgrass, woolly (woolly cupgrass, Eriochloa villosa), bermudagrass (Cynodon dactylon), sunflower, (common oilseed sunflower, Helianthus annuus), Russian thistle (Salsola kali), and velvetleaf (Abutilon theophrasti) were planted into a blend of loam soil and sand and treated preemergence with test chemicals formulated in a non-phytotoxic solvent mixture which included a surfactant.
(§2) At the same time, plants selected from these crop and weed species and also chickweed (common chickweed, Stellaria media), canarygrass (littleseed canarygrass, Phalaris minor), and deadnettle (henbit deadnettle, Lamium amplexicaule), were planted in pots containing Redi-Earth® planting medium (Scotts Company, 14111 Scottslawn Road, Marysville, Ohio 43041) comprising spaghnum peat moss, vermiculite, wetting agent and starter nutrients and treated with postemergence applications of test chemicals formulated in the same manner. Plants ranged in height from 2 to 18 cm (1- to 4-leaf stage) for postemergence treatments. Treated plants and controls were maintained in a greenhouse for 13 to 15 days, after which time all species were compared to controls and visually evaluated. Plant response ratings, summarized in Table C, are based on a scale of 0 to 100 where 0 is no effect and 100 is complete control. A dash (-) response means no test result.

In experiment [3] the test system is kochia. The experiment in a line: Test C preemergence. Conditions: for Plant response rating (scale of 0 to 100), Kochia: Preemergence, 250 g ai/ha; for Kochia plant response rating / Plant response rating, Kochia: preemergence; for Plant response rating, Kochia: 62 g ai/ha, scale 0 to 100, 0 = no effect, 100 = complete control. It counts as in vivo, Kochia scoparia.
Text: as §1, §2

Experiment [4] deals with corn. The experiment in a line: Test F preemergence. It counts as in vivo, Zea mays. From the text:
Seeds of plant species selected from corn (Zea mays), soybean (Glycine max), velvetleaf (Abutilon theophrasti), lambsquarters (Chenopodium album), wild poinsettia (Euphorbia heterophylla), pigweed, palmer (palmer pigweed, Amaranthus palmeri), common waterhemp (Amaranthus rudis), surinam grass (Brachiaria decumbens), large crabgrass (Digitaria sanguinalis), crabgrass, Brazil (Brazilian crabgrass, Digitaria horizontalis), fall panicum (Panicum dichotomiflorum), giant foxtail (Setaria faberii), green foxtail (Setaria viridis), goosegrass (Eleusine indica), johnsongrass (Sorghum halepense), common ragweed (Ambrosia elation), barnyardgrass (Echinochloa crus-galli), southern sandbur (Cenchrus echinatus), arrowleaf sida (Sida rhombifolia), Italian ryegrass (Lolium multiflorum), dayflower, VA (Virginia (VA) dayflower, Commelina virginica), field bindweed (Convolvulus arvensis), cocklebur (common cocklebur, Xanthium strumarium), morningglory (Ipomoea coccinea), nightshade (eastern black nightshade, Solanum ptycanthum), kochia (Kochia scoparia), yellow nutsedge (Cyperus esculentus), and hairy beggarticks (Bidens pilosa), were planted into a silt loam soil and treated preemergence with test chemicals formulated in a non-phytotoxic solvent mixture which included a surfactant.
At the same time, plants from these crop and weed species and also horseweed (Canada horseweed, Conyza canadensis), smartweed (ladysthumb smartweed, Polygonum persicaria), waterhemp_RES1, (ALS & Triazine resistant common waterhemp, Amaranthus rudis), and waterhemp_RES2, (ALS & HPPD resistant common waterhemp, Amaranthus rudis) were treated with postemergence applications of test chemicals formulated in the same manner. Plants ranged in height from 2 to 18 cm for postemergence treatments (1- to 4-leaf stage). Treated plants and controls were maintained in a greenhouse for 14 to 21 days, after which time all species were compared to controls and visually evaluated. Plant response ratings, summarized in Table F, are based on a scale of 0 to 100 where 0 is no effect and 100 is complete control. A dash (-) response means no test result.

The mark [5] stands for this setting: 125 g ai/ha, visual injury, 0 to 100 scale, approx. 10 days.
The mark [6] stands for this setting: 500 g ai/ha, visual injury after approx. 10 days, 0 to 100 scale (0 no effect, 100 complete control).
Setting [7] is: 31 g ai/ha, scale 0 to 100 (0 no effect, 100 complete control), 13 to 15 days.
Setting [8] is: 125 g ai/ha, scale 0 to 100, 0 is no effect, 100 is complete control.
Where [9] appears, read: Preemergence, 62 g ai/ha, scale 0 to 100.
[10] abbreviates: Preemergence, 125 g ai/ha, scale 0 to 100.
The mark [11] stands for this setting: preemergence, 16 g ai/ha, scale 0 to 100, 100 is complete control.
Setting [12] is: Preemergence, 250 g ai/ha, scale 0 to 100.

As to `CCOc1cc(C(=O)NCC(F)(F)F)nn1Cc1ccnc(OC(F)F)c1` [Compound 128], the “Kochia plant response rating” value in experiment [1] (setting [5]) and in experiment [1] (setting [6]) was 100 throughout.
As for `CCCc1cc(C(=O)NC2CC2)nn1Cc1ccnc(OC(F)F)c1` [Compound 205], the “Kochia plant response rating (0 to 100 scale)” value in experiment [1] (125 g ai/ha, visual injury approx. 10 days after treatment) turned out to be 100.
Take `Cc1cc(C(=O)NCC(F)(F)F)nn1Cc1ccnc(C(F)(F)F)c1` [Compound 74]: in experiment [2], the “Plant response rating (scale of 0 to 100), Foxtail, Green” value was 95. The “Foxtail, Green plant response rating” value came to 85 in experiment [2] (setting [7]) and 95 in experiment [2] (setting [8]). For the same compound, in experiment [2] (13 to 15 days), the “Plant response rating, Foxtail, Green” value stood at 95. Besides, the “Plant response rating (scale of 0 to 100), Kochia” value in experiment [3] is recorded as 98. The “Kochia plant response rating” value in experiment [3] (setting [7]) and in experiment [3] (setting [8]) was 98 in each case. In experiment [3] (13 to 15 days), the “Plant response rating, Kochia” value is 98.
In the case of `CCc1cc(C(=O)NOC(C)C)nn1Cc1ccnc(OC(F)F)c1` [Compound 126], the “Kochia plant response rating” value in experiment [1] (setting [5]) and in experiment [1] (setting [6]) was 100 in each case.
For the compound `CCONC(=O)c1cc(CC)n(Cc2cccc(OC(F)(F)F)c2)n1` [Compound 72], in experiment [2], the “Plant response rating (scale of 0 to 100), Foxtail, Green” value turned out to be 98. Moreover, the “Foxtail, Green plant response rating” value in experiment [2] (setting [7]) is 30; in experiment [2] (setting [8]), 90. Besides, the “Plant response rating, Foxtail, Green” value in experiment [2] (13 to 15 days) is on record as 85. In experiment [3], the “Plant response rating (scale of 0 to 100), Kochia” value is listed as 80. The results for the “Kochia plant response rating” value in experiment [3] (setting [7]) and in experiment [3] (setting [8]) were 5 and 50, respectively. In experiment [3] (13 to 15 days), the “Plant response rating, Kochia” value is listed as 45.
As for `CCCNC(=O)c1cc(OCC)n(Cc2ccnc(OC(F)F)c2)n1` [Compound 136], the “Kochia plant response rating” value in experiment [1] (setting [5]) and in experiment [1] (setting [6]) was 100 in each case.
`CCc1cc(C(=O)NOC(C)C)nn1Cc1cccc(OC(F)(F)F)c1` [Compound 70]: the “Plant response rating (scale of 0 to 100), Foxtail, Green” value in experiment [2] worked out at 98. In addition, the “Foxtail, Green plant response rating” value in experiment [2] (setting [7]) was 15; in experiment [2] (setting [8]), 95. In addition, the “Plant response rating, Foxtail, Green” value in experiment [2] (13 to 15 days) is 95. The “Plant response rating (scale of 0 to 100), Kochia” value in experiment [3] is listed as 98. In addition, the “Kochia plant response rating” value in experiment [3] (setting [7]) was found to be 40; in experiment [3] (setting [8]), 98. The “Plant response rating, Kochia” value in experiment [3] (13 to 15 days) is 65.
In the case of `CCCc1cc(C(=O)NCC(F)(F)F)nn1Cc1ccnc(OC(F)F)c1` [Compound 127], the “Kochia plant response rating” value in experiment [1] (setting [5]) and in experiment [1] (setting [6]) was 100 in each case.
Turning to `CCc1cc(-c2ccc(C(F)(F)F)cc2)nn1Cc1ccnc(C(F)(F)F)c1` [Compound 110], the “Plant response rating, Corn” value came to 0 in experiment [4] (Preemergence, 31 g ai/ha, scale 0 to 100); 0 in experiment [4] (setting [9]); 15 in experiment [4] (setting [10]); 0 in experiment [4] (preemergence, 8 g ai/ha, scale 0 to 100, 100 is complete control); 0 in experiment [4] (setting [11]).
Turning to `CCc1cc(C(=O)NCC(F)(F)F)nn1Cc1ccnc(Br)c1` [Compound 224], the “Plant response rating, Corn” value turned out to be 0 in experiment [4] (setting [9]), 20 in experiment [4] (setting [10]) and 40 in experiment [4] (setting [12]).
In the case of `CCCc1cc(C(=O)NC(C)C)nn1Cc1cc(C(F)(F)F)nn1C` [Compound 201], the “Plant response rating, Corn” value was 10 in experiment [4] (setting [9]), 20 in experiment [4] (setting [10]), 60 in experiment [4] (setting [12]) and 0 in experiment [4] (setting [11]).
